Experimental data as given in patent publication US10544444B2, “Compositions for in situ labeling of bacterial cell walls with fluorophores and methods of use thereof” (priority 2012, dated 2020).

Assays:
[1] = tested on: E. coli, B. subtilis, A. tumefaciens, L. lactis, M. conglomeratus, C. crescentus and S. aureus; experiment: Short pulse labeling of evolutionarily distinct bacteria; assay type: cell-based; settings: pulsed for 2%-8% of generation time, immediately fixed
[2] = tested on: Agrobacterium tumefaciens; experiment: Cell wall / PG labeling of live A. tumefaciens, fluorescence microscopy; assay type: cell-based; settings: for incorporation into the cell wall: control experiments, fluorescent D-Ala vs fluorescent L-Ala

Row | Compound | visibility of sites of active cell wall synthesis [1] | incorporation into the cell wall [2] | PG labeling, long labeling pulses ([2]; live A. tumefaciens, long pulse)
1 | NC(CNC(=O)c1cc2ccc(O)cc2oc1=O)C(=O)O (stereo not shown) [HADA] | sites of active synthesis were clearly visible | incorporated into the cell wall | uniformly label PG
2 | N[C@@H](CNC(=O)c1cc2ccc(O)cc2oc1=O)C(=O)O [HALA] | – | only D-HCC was incorporated | –
